Experimental data published in article PMC12040169 (PLOS Biology, 2025).
In brackets after ≈: the same amount, converted by molar mass.

What was measured:
[1] = test system: T1, CTL2-GFP (C. trachomatis L2/434/Bu, GFP-expressing); assay: microbe, parasite or virus in culture; design: species or system HeLa; C. trachomatis growth in HeLa, dose-response, mean of bulk GFP fluorescence and imaged total inclusion area; settings: Chlamydia trachomatis, 28.5 h; mean of GFP and inclusion area
T1 construct: L2/434/Bu, GFP-expressing
Source text: (§1) We screened a library of 36,785 small molecules displaying drug-like properties and covering a wide chemical space (Fig 1A and S2A Data). In this process, we also complemented the assay described above with an imaging-based readout (Fig 1B). After measurements of bulk GFP and resorufin fluorescence, cells were fixed, stained with the DNA dye Hoechst, and imaged at a high-content imaging platform to detect chlamydial inclusions (GFP) and host cell nuclei (Hoechst). The total area and number of inclusions in individual wells and the number of nuclei then served as additional proxies for chlamydial growth and host cell viability. […] MICs were calculated as described above.

in vitro = assay: in vitro; design: Viability of infected HeLa host cells, resazurin conversion, bulk resorufin fluorescence relative to DMSO; settings: human, hela cells; bulk resorufin, mean of 3
[2] = test system: T1, CTL2-GFP (C. trachomatis L2/434/Bu, GFP-expressing); assay: microbe, parasite or virus in culture; design: C. trachomatis growth in HeLa, dose-response, mean of bulk GFP fluorescence and imaged total inclusion area; settings: Chlamydia trachomatis, HeLa, 28.5 h; mean of GFP and inclusion area
Source text: as §1

| SMILES | MIC [1] [µM] | viability at 28.5 h, 0.000416667 µM (in vitro) [%] | viability at 28.5 h, 0.00125 µM (in vitro) [%] | viability at 28.5 h, 0.00375 µM (in vitro) [%] | viability at 28.5 h, 0.0123333 µM (in vitro) [%] | viability at 28.5 h, 0.037 µM (in vitro) [%] | viability at 28.5 h, 0.111 µM (in vitro) [%] | viability at 28.5 h, 0.333 µM (in vitro) [%] | viability at 28.5 h, 1 µM (in vitro) [%] | viability at 28.5 h, 3 µM (in vitro) [%] | viability at 28.5 h, 10 µM (in vitro) [%] | viability at 28.5 h, 30 µM (in vitro) [%] | IC50 [2] [µM] |
| --- | --- | --- | --- | --- | --- | --- | --- | --- | --- | --- | --- | --- | --- |
| CN(C(=O)c1ccc(Cl)c(Cl)c1)[C@H]1CCC[C@H]1N1CCCC1 [c12e] | 1.7 (≈ 0.581 µg/mL) | 93 | 89.3 | 91.4 | 89 | 88.9 | 92.8 | 88.7 | 89 | 85.2 | 92.7 | 82.8 | 1.02 |
| FC(F)(F)CCN1CCC2(CC1)NCCc1c2[nH]c2ccc(Cl)cc12 [c34e] | 11.9 (≈ 4.42 µg/mL) | 86.8 | 91.2 | 88.2 | 90.3 | 88.5 | 93.2 | 89.1 | 91.8 | 88.3 | 93.9 | 71.8 | 3.31 |
| CC(=O)N1CCc2sccc2C1c1ccccc1NCc1ccoc1 (stereo not drawn) [c28e] | 5.24 (≈ 1.85 µg/mL) | 92.9 | 92.5 | 86 | 93.2 | 90.6 | 89.2 | 86.1 | 90.6 | 82.6 | 87.9 | 83 | 2.6 |
| O=[N+]([O-])c1ccc(-n2cnc3ccccc32)c([N+](=O)[O-])c1 [c41e] | 11.2 (≈ 3.17 µg/mL) | 99 | 96.9 | 102 | 101 | 104 | 97.8 | 104 | 99.3 | 99 | 101 | 96.3 | 5.2 |
| COc1cccc(CNC(C(=O)O)c2ccc3c(c2)OCO3)c1 (stereo not drawn) [c40e] | 10.8 (≈ 3.42 µg/mL) | 109 | 98.4 | 103 | 95.7 | 99.4 | 102 | 103 | 104 | 103 | 99.7 | 89.7 | 4.96 |
| O=C(NCCc1c[nH]c2ccc(Cl)cc12)c1c(F)ccc(Cl)c1F [c42e] | 5.43 (≈ 2 µg/mL) | 100 | 101 | 98.1 | 104 | 99.6 | 101 | 106 | 109 | 107 | 103 | 107 | 5.3 |
| CC(Cc1nc(-c2nccn2C)cs1)n1cc(Cl)cn1 (stereo not drawn) [c14e] | 3.65 (≈ 1.12 µg/mL) | 104 | 110 | 107 | 105 | 103 | 106 | 103 | 111 | 108 | 110 | 110 | 1.03 |
| Cn1cc(C(c2ccc(OCC(=O)O)cc2)c2cn(C)c3ccccc23)c2ccccc21 [c48e] | 8.4 (≈ 3.56 µg/mL) | 87.9 | 89.6 | 87.2 | 88.7 | 88.5 | 89.5 | 89.6 | 93.9 | 93.8 | 97.6 | 87.9 | 6.69 |
| CCOc1ccsc1C(=O)NC1Cc2ccccc2C1 [c16e] | 3.2 (≈ 0.92 µg/mL) | 89.7 | 86.9 | 89.9 | 85.4 | 87.1 | 85.4 | 87.5 | 84.6 | 84.5 | 84.3 | 87 | 1.19 |
| FC(F)(F)c1ccc(N2CCNCC2)nc1OCc1ccc2c(c1)OCCO2 [c46e] | 11.3 (≈ 4.47 µg/mL) | 85.8 | 88.5 | 88.8 | 94.6 | 90.4 | 93.4 | 88.9 | 91.1 | 94 | 97.2 | 11.7 | 6.17 |
| O=C(CC1SC(Nc2ccc(O)cc2)=NC1=O)c1ccccc1 (stereo not drawn) [c13e] | 4.56 (≈ 1.49 µg/mL) | 95 | 92.7 | 87.7 | 95 | 87.6 | 92 | 86.2 | 88.7 | 85.2 | 85.6 | 83.8 | 1.03 |
| CCCCc1ccc(Nc2csc(N)n2)cc1 [c11e] | 3.11 (≈ 0.768 µg/mL) | 97.7 | 95.9 | 96.4 | 104 | 92.8 | 97.8 | 99.6 | 102 | 92.4 | 92.8 | 69.9 | 0.956 |
